Source: ChEMBL document CHEMBL1125091, “Antiulcer agents. 4-substituted 2-guanidinothiazoles: reversible, competitive, and selective inhibitors of gastric H+,K(+)-ATPase” (J Med Chem, 1990)
“And” between values parts separate entries of the source, which are not always exact repeats. Equal values may be shown once.

Key:
[1] = tested on: Potassium-transporting ATPase (Canis familiaris); assay: Percent inhibition of gastric proton-pump enzyme H+/K+ ATPase was determined at 50 uM; conditions: Canis lupus familiaris, Stomach
[2] = target: Potassium-transporting ATPase (Canis familiaris); assay: Inhibitory activity against dog gastric proton-pump enzyme H+/K+ ATPase

SMILES: N=C(N)Nc1nc(-c2c[nH]c3ccccc23)cs1
- inhibition [1]: 91%
- IC50 [2]: 9 µM

SMILES: Cc1ccc2[nH]cc(-c3csc(N=C(N)N)n3)c2c1
- inhibition [1]: 76%
- IC50 [2]: 1.8 µM

SMILES: N=C(N)Nc1nc(-c2cc3cc(F)ccc3[nH]2)cs1
- inhibition [1]: 87%
- IC50 [2]: 4 µM

SMILES: Cc1cccc2c(-c3csc(NC(=N)NCc4ccccc4)n3)c[nH]c12
- inhibition [1]: 92%
- IC50 [2]: 1 µM

SMILES: N=C(N)Nc1nc(-c2cc3ccccc3[nH]2)cs1
- inhibition [1]: 72%
- IC50 [2]: 14 µM

SMILES: N=C(NCc1ccccc1)Nc1nc(-c2c[nH]c3ccc(Cl)cc23)cs1
- inhibition [1]: 92%
- IC50 [2]: 0.7 µM

SMILES: Cc1sc(N=C(N)NCc2ccccc2)nc1-c1c[nH]c2ccc(Cl)cc12
- IC50 [2]: 0.7 µM

SMILES: Cc1sc(N=C(N)N)nc1-c1ccn(S(=O)(=O)c2ccccc2)c1C
- inhibition [1]: 100%
- IC50 [2]: 4.2 µM

SMILES: Cc1[nH]c2ccc(Cl)cc2c1-c1nc(NC(=N)NCc2ccccc2)sc1C
- inhibition [1]: 100%
- IC50 [2]: 1.1 µM

SMILES: N=C(N)Nc1nc(-c2ccc[nH]2)cs1
- inhibition [1]: 68%
- IC50 [2]: 30 µM

SMILES: Cc1ccccc1-c1csc(NC(=N)NCc2ccccc2)n1
- inhibition [1]: 111%
- IC50 [2]: 10 µM

SMILES: Cc1cc(-c2nc(NC(=N)NCc3ccccc3)sc2C)c[nH]1
- inhibition [1]: 83%
- IC50 [2]: 7.9 µM

SMILES: Cc1sc(NC(=N)NCc2ccccc2)nc1-c1ccc(O)c(O)c1
- inhibition [1]: 103%
- IC50 [2]: 1.3 µM

SMILES: CN(C)Cc1cc(-c2csc(N=C(N)N)n2)c[nH]1
- inhibition [1]: 94%
- IC50 [2]: 9 µM

SMILES: N=C(NCc1ccccc1)Nc1nc(-c2cc3ccccc3[nH]2)cs1
- inhibition [1]: 61%
- IC50 [2]: 16 µM

SMILES: N=C(N)Nc1nc(-c2ccc(O)cc2)cs1
- inhibition [1]: 75%
- IC50 [2]: 15 µM

SMILES: CCCCCC/N=C(\N)Nc1nc(-c2c[nH]c(C)c2)cs1
- inhibition [1]: 93%
- IC50 [2]: 7 µM

SMILES: COC(=O)c1ccc2[nH]cc(-c3csc(N=C(N)N)n3)c2c1
- inhibition [1]: 86%
- IC50 [2]: 6.7 µM

SMILES: Cc1ccc(C/N=C(\N)Nc2nc(-c3c[nH]c(C)c3)c(C)s2)cc1
- inhibition [1]: 95%
- IC50 [2]: 2.9 µM

SMILES: Cc1ccc2c(-c3csc(NC(=N)NCc4ccccc4)n3)c[nH]c2c1
- inhibition [1]: 98%
- IC50 [2]: 1.6 µM

SMILES: COc1ccccc1-c1csc(N=C(N)N)n1
- inhibition [1]: 70%
- IC50 [2]: 27 µM

SMILES: Cc1cccc(-c2csc(N=C(N)N)n2)c1
- inhibition [1]: 60%
- IC50 [2]: 32 µM

SMILES: Cc1cc(-c2csc(NC(=N)NCc3ccccc3)n2)c[nH]1
- inhibition [1]: 97%
- IC50 [2]: 11 µM

SMILES: Cc1[nH]c(-c2csc(N=C(N)N)n2)cc1CN(C)C
- inhibition [1]: 87%
- IC50 [2]: 11 µM

SMILES: Cc1sc(N=C(N)N)nc1-c1c[nH]c(C=O)c1
- inhibition [1]: 77%
- IC50 [2]: 28 µM

SMILES: N=C(N)Nc1nc(-c2ccc(N)cc2)cs1
- inhibition [1]: 63%
- IC50 [2]: 32 µM

SMILES: Cc1ccc(-c2csc(N=C(N)N)n2)n1S(=O)(=O)c1ccccc1
- inhibition [1]: 91%
- IC50 [2]: 7 µM

SMILES: Cc1cc(-c2csc(N=C(N)N)n2)cn1S(=O)(=O)c1ccccc1
- inhibition [1]: 92%
- IC50 [2]: 2 µM

SMILES: Cc1ccccc1-c1csc(N=C(N)N)n1
- inhibition [1]: 78%
- IC50 [2]: 20 µM

SMILES: N/C(=N\Cc1ccccc1)Nc1nc(-c2ccc(N)cc2)cs1
- inhibition [1]: 77%
- IC50 [2]: 5.2 µM

SMILES: Cc1ccc2[nH]cc(-c3csc(NC(=N)NCc4ccccc4)n3)c2c1
- inhibition [1]: 104%
- IC50 [2]: 0.94 µM

SMILES: Cc1sc(N=C(N)N)nc1-c1c[nH]c2ccc(Cl)cc12
- inhibition [1]: 99%
- IC50 [2]: 0.59 µM

SMILES: Cc1ccc(-c2csc(N=C(N)NCc3ccccc3)n2)[nH]1
- IC50 [2]: 7 µM

SMILES: CC(=O)Nc1ccc2[nH]cc(-c3csc(NC(=N)NCc4ccccc4)n3)c2c1
- inhibition [1]: 66%
- IC50 [2]: 23.8 µM

SMILES: N=C(NCc1ccccc1)Nc1nc(-c2c[nH]c3ccc(OCc4ccccc4)cc23)cs1
- inhibition [1]: 90%
- IC50 [2]: 1.8 µM

SMILES: Cc1cc(-c2nc(NC(=N)Nc3ccccc3)sc2C)c[nH]1
- inhibition [1]: 83%
- IC50 [2]: 9.8 µM

SMILES: COc1cccc(-c2csc(N=C(N)N)n2)c1
- inhibition [1]: 48%
- IC50 [2]: 60 µM

SMILES: CCOC(=O)c1cc(-c2csc(N=C(N)N)n2)[nH]c1C
- inhibition [1]: 91%
- IC50 [2]: 7 µM

SMILES: COc1cccc(-c2csc(NC(=N)NCc3ccccc3)n2)c1
- inhibition [1]: 85%
- IC50 [2]: 10 µM

SMILES: N=C(NCc1ccccc1)Nc1nc(-c2cc3cc(Cl)ccc3[nH]2)cs1
- inhibition [1]: 97%
- IC50 [2]: 9.1 µM

SMILES: N=C(NCc1ccccc1)Nc1nc(-c2ccccc2Cl)cs1
- inhibition [1]: 99%
- IC50 [2]: 6 µM

SMILES: CN(C)Cc1cccc(-c2csc(N=C(N)N)n2)c1
- inhibition [1]: 56%
- IC50 [2]: 37 µM

SMILES: Cc1cc(-c2nc(NC(=N)NCCc3ccccc3)sc2C)c[nH]1
- inhibition [1]: 87%
- IC50 [2]: 9.1 µM

SMILES: Cc1sc(N=C(N)N)nc1-c1c[nH]c2ccccc12
- inhibition [1]: 92%
- IC50 [2]: 7.6 µM

SMILES: Cc1[nH]c2ccccc2c1-c1csc(N=C(N)N)n1
- inhibition [1]: 85%
- IC50 [2]: 9 µM

SMILES: Cc1cc(-c2csc(NC(=N)NCc3ccc(Cl)cc3)n2)c[nH]1
- inhibition [1]: 95%
- IC50 [2]: 7 µM

SMILES: N=C(NCc1ccccc1)Nc1nc(-c2c[nH]c3ccc(F)cc23)cs1
- inhibition [1]: 96%
- IC50 [2]: 2.7 µM

SMILES: NC(N)=Nc1cc(Cl)nc(-c2ccccc2)n1
- IC50 [2]: 6 µM

SMILES: CN(C)c1ccc(-c2csc(N=C(N)N)n2)cc1
- inhibition [1]: 75%
- IC50 [2]: 14 µM

SMILES: N=C(NCc1ccccc1)Nc1nc(-c2ccc[nH]2)cs1
- inhibition [1]: 81%
- IC50 [2]: 9 µM

SMILES: Cc1cccc2[nH]cc(-c3csc(N=C(N)NCc4ccccc4)n3)c12
- IC50 [2]: 3.3 µM

SMILES: N=C(N)Nc1nc(-c2c[nH]c(C(=O)N3CCCCC3)c2)cs1
- inhibition [1]: 69%
- IC50 [2]: 17 µM

SMILES: Cc1[nH]c2ccccc2c1-c1csc(NC(=N)NCc2ccccc2)n1
- inhibition [1]: 102%
- IC50 [2]: 1.7 µM

SMILES: N=C(N)Nc1nc(-c2cccc(O)c2)cs1
- inhibition [1]: 69%
- IC50 [2]: 23 µM

SMILES: N=C(N)Nc1nc(-c2cccc(Cl)c2)cs1
- inhibition [1]: 48%
- IC50 [2]: 53 µM

SMILES: Cc1[nH]ccc1-c1nc(NC(=N)NCc2ccccc2)sc1C
- inhibition [1]: 80%
- IC50 [2]: 8.8 µM

SMILES: N=C(N)Nc1nc(-c2c[nH]c3ccc(F)cc23)cs1
- inhibition [1]: 90%
- IC50 [2]: 7.4 µM

SMILES: COC(=O)c1ccc2[nH]cc(-c3csc(NC(=N)NCc4ccccc4)n3)c2c1
- inhibition [1]: 94%
- IC50 [2]: 3.1 µM

SMILES: Cc1[nH]c(-c2csc(N=C(N)N)n2)cc1C(=O)N(C)C
- inhibition [1]: 33%

SMILES: N/C(=N\Cc1ccccc1)Nc1nc(-c2ccccc2O)cs1
- inhibition [1]: 85%
- IC50 [2]: 11 µM

SMILES: Cc1cc(-c2csc(NC3=NCCN3)n2)c[nH]1
- inhibition [1]: 25%

SMILES: Cc1cc(-c2csc(N=C(N)N)n2)cn1C
- inhibition [1]: 74%
- IC50 [2]: 24 µM

SMILES: Cc1[nH]ccc1-c1csc(N=C(N)N)n1
- inhibition [1]: 96%
- IC50 [2]: 7 µM

SMILES: N=C(NCc1ccccc1)Nc1nc(-c2cccc(Cl)c2)cs1
- inhibition [1]: 80%

SMILES: COc1ccc(-c2csc(NC(=N)NCc3ccccc3)n2)cc1
- inhibition [1]: 24%

SMILES: N=C(N)Nc1nc(-c2c[nH]c3ccc(OCc4ccccc4)cc23)cs1
- inhibition [1]: 78%
- IC50 [2]: 1.2 µM

SMILES: N=C(N)Nc1nc(-c2ccccc2Cl)cs1
- inhibition [1]: 71%
- IC50 [2]: 18 µM and 9 µM

SMILES: N=C(N)Nc1nc(-c2ccccc2)co1
- inhibition [1]: 0%

SMILES: Cc1c(-c2csc(N=C(N)N)n2)ccn1S(=O)(=O)c1ccccc1
- inhibition [1]: 101%
- IC50 [2]: 2 µM

SMILES: Cc1[nH]c2ccc(Cl)cc2c1-c1nc(N=C(N)N)sc1C
- inhibition [1]: 103%
- IC50 [2]: 0.6 µM

SMILES: N=C(N)Nc1cc(Cl)nc(-c2ccccc2)n1
- inhibition [1]: 89%

SMILES: N=C(N)Nc1nc(-c2ccc(F)cc2)cs1
- inhibition [1]: 61%
- IC50 [2]: 33 µM

SMILES: COc1ccc2[nH]cc(-c3csc(N=C(N)N)n3)c2c1
- inhibition [1]: 70%
- IC50 [2]: 19 µM

SMILES: NC(N)=Nc1nc(-c2ccccc2)cs1
- IC50 [2]: 40 µM

SMILES: Cc1sc(N=C(N)N)nc1-c1ccc(O)c(O)c1
- inhibition [1]: 97%
- IC50 [2]: 1.6 µM

SMILES: N=C(NCc1ccccc1)Nc1nc(-c2c[nH]c3ccccc23)cs1
- inhibition [1]: 102%
- IC50 [2]: 1.5 µM

SMILES: Cc1ccc(-c2csc(NC(=N)NCc3ccccc3)n2)n1S(=O)(=O)c1ccccc1
- inhibition [1]: 57%
- IC50 [2]: 26 µM

SMILES: COc1ccccc1-c1csc(NC(=N)NCc2ccccc2)n1
- inhibition [1]: 99%
- IC50 [2]: 2.3 µM
